Measured values taken from ChEMBL document CHEMBL1201862, “PubChem BioAssay data set” (2004).
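Exposure lasted 48 hours, with cells grown in 96-well plates and compounds tested at five concentrations. At the GI50, growth is halved.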 Activity calls are given as the source filed them. Cut-off read from the data, not from the text of the source: active = GI50 up to about 1.1 µM and inactive = higher.

What was measured:
Assay in all cases: NCI-60 cell line screen, 48 h
DMS-273 = tested on: DMS-273
CAKI-1 = tested on: CAKI-1
SF-268 = tested on: SF-268
ACHN = tested on: ACHN
Malme-3M = tested on: Malme-3M
OVCAR-8 = tested on: OVCAR-8
DMS-114 = tested on: DMS-114
SNB-78 = tested on: SNB-78
KM-20L2 = tested on: KM-20L2
A498 = tested on: A498
NCI-H226 = tested on: NCI-H226
NCI-H460 = tested on: NCI-H460
OVCAR-5 = tested on: OVCAR-5
OVCAR-3 = tested on: OVCAR-3
UACC-257 = tested on: UACC-257
SW-620 = tested on: SW-620
OVCAR-4 = tested on: OVCAR-4
HL-60 = tested on: HL-60
LOX IMVI = tested on: LOX IMVI
RXF 393 = tested on: RXF 393
786-0 = tested on: 786-0
K562 = tested on: K562
A549 = tested on: A549
CCRF-CEM = tested on: CCRF-CEM
SF-539 = tested on: SF-539
M19-MEL = tested on: M19-MEL
SNB-19 = tested on: SNB-19
EKVX = tested on: EKVX
TK-10 = tested on: TK-10
SK-MEL-2 = tested on: SK-MEL-2
RPMI-8226 = tested on: RPMI-8226
MOLT-4 = tested on: MOLT-4
HCT-116 = tested on: HCT-116
HCT-15 = tested on: HCT-15
IGROV-1 = tested on: IGROV-1
M14 = tested on: M14
HCC 2998 = tested on: HCC 2998
UO-31 = tested on: UO-31
UACC-62 = tested on: UACC-62
HOP-92 = tested on: HOP-92
SNB-75 = tested on: SNB-75
NCI-H23 = tested on: NCI-H23
SF-295 = tested on: SF-295
HT-29 = tested on: HT-29
SK-MEL-5 = tested on: SK-MEL-5
RXF 631 = tested on: RXF 631
SK-MEL-28 = tested on: SK-MEL-28
SN12C = tested on: SN12C
LXFL 529 = tested on: LXFL 529
DLD-1 = tested on: DLD-1
SR = tested on: SR
HOP-18 = tested on: HOP-18
SK-OV-3 = tested on: SK-OV-3
XF498 = tested on: XF498
HOP-62 = tested on: HOP-62
U-251 = tested on: U-251
NCI-H522 = tested on: NCI-H522
COLO 205 = tested on: COLO 205
KM12 = tested on: KM12

With `O=c1/c(=C/c2ccccc2O)sc2nc3ccccc3n12` the GI50 (DMS-273) was 82.4 µM (inactive), the GI50 (CAKI-1) was 34.6 µM (inactive) and the GI50 (SF-268) was 16.6 µM (inactive). For the same compound, the GI50 (ACHN) was 45.6 µM (inactive), the GI50 (Malme-3M) was 32.2 µM (inactive) and the GI50 (OVCAR-8) was 45 µM (inactive). For the same compound, the GI50 (DMS-114) was 19.7 µM (inactive), the GI50 (SNB-78) was 43.2 µM (inactive) and the GI50 (KM-20L2) was 84.1 µM (inactive). The GI50 (A498) was 49.4 µM (inactive), the GI50 (NCI-H226) was 52.1 µM (inactive) and the GI50 (NCI-H460) was 35 µM (inactive). The GI50 (OVCAR-5) was > 100 µM (inactive), the GI50 (OVCAR-3) was 29.7 µM (inactive) and the GI50 (UACC-257) was 62.7 µM (inactive). The GI50 (SW-620) was 40.5 µM (inactive), the GI50 (OVCAR-4) was 80.4 µM (inactive) and the GI50 (HL-60) was 4.9 µM (inactive). For the same compound, the GI50 (LOX IMVI) was 35.5 µM (inactive), the GI50 (RXF 393) was 21.9 µM (inactive) and the GI50 (786-0) was 53.2 µM (inactive). The GI50 (K562) was 33.6 µM (inactive), the GI50 (A549) was 41.8 µM (inactive) and the GI50 (CCRF-CEM) was 16.3 µM (inactive). The GI50 (SF-539) was 35.5 µM (inactive), the GI50 (M19-MEL) was 41.2 µM (inactive) and the GI50 (SNB-19) was 80.7 µM (inactive). The GI50 (EKVX) was 15.3 µM (inactive), the GI50 (TK-10) was > 100 µM (inactive) and the GI50 (SK-MEL-2) was 32.3 µM (inactive). The GI50 (RPMI-8226) was 21.2 µM (inactive), the GI50 (MOLT-4) was 18.1 µM (inactive) and the GI50 (HCT-116) was 47.3 µM (inactive). For the same compound, the GI50 (HCT-15) was 21.6 µM, the GI50 (IGROV-1) was 16.9 µM (inactive) and the GI50 (M14) was 47.9 µM (inactive). For the same compound, the GI50 (HCC 2998) was 55.8 µM (inactive), the GI50 (UO-31) was 46.8 µM (inactive) and the GI50 (UACC-62) was 23.1 µM (inactive). The GI50 (HOP-92) was 24.4 µM (inactive), the GI50 (SNB-75) was 84.9 µM (inactive) and the GI50 (NCI-H23) was 38.7 µM (inactive). For the same compound, the GI50 (SF-295) was 34.3 µM (inactive), the GI50 (HT-29) was 43.2 µM (inactive) and the GI50 (SK-MEL-5) was 30.7 µM (inactive). The GI50 (RXF 631) was 43.7 µM (inactive), the GI50 (SK-MEL-28) was 23.6 µM (inactive) and the GI50 (SN12C) was 33.9 µM (inactive). The GI50 (LXFL 529) was 31.3 µM (inactive), the GI50 (DLD-1) was 29.9 µM (inactive) and the GI50 (SR) was 27.4 µM (inactive).

`O=C1c2ccccc2N2OC3(N4CCOCC4)CCCC3C12c1ccccc1` (stereo unspecified) was tested, and the GI50 (DMS-273) was > 100 µM (inactive), the GI50 (HOP-18) was > 100 µM (inactive) and the GI50 (SF-268) was > 100 µM (inactive). For the same compound, the GI50 (SK-OV-3) was > 100 µM (inactive), the GI50 (ACHN) was > 100 µM (inactive) and the GI50 (Malme-3M) was > 100 µM (inactive). The GI50 (OVCAR-8) was > 100 µM (inactive), the GI50 (XF498) was > 100 µM (inactive) and the GI50 (DMS-114) was > 100 µM (inactive). For the same compound, the GI50 (SNB-78) was > 100 µM (inactive), the GI50 (KM-20L2) was > 100 µM (inactive) and the GI50 (HOP-62) was > 100 µM (inactive). The GI50 (A498) was > 100 µM (inactive), the GI50 (NCI-H226) was > 100 µM (inactive) and the GI50 (UACC-257) was > 100 µM (inactive). The GI50 (SW-620) was > 100 µM (inactive), the GI50 (U-251) was > 100 µM (inactive) and the GI50 (OVCAR-4) was > 100 µM (inactive). The GI50 (HL-60) was 77.1 µM (inactive), the GI50 (NCI-H522) was 86.1 µM (inactive) and the GI50 (RXF 393) was 49.2 µM (inactive). For the same compound, the GI50 (786-0) was > 100 µM (inactive), the GI50 (K562) was > 100 µM (inactive) and the GI50 (A549) was > 100 µM (inactive). The GI50 (CCRF-CEM) was > 100 µM (inactive), the GI50 (SF-539) was > 100 µM (inactive) and the GI50 (M19-MEL) was > 100 µM (inactive). The GI50 (SNB-19) was > 100 µM (inactive), the GI50 (EKVX) was > 100 µM (inactive) and the GI50 (RPMI-8226) was > 100 µM (inactive). The GI50 (MOLT-4) was > 100 µM (inactive), the GI50 (HCT-116) was > 100 µM (inactive) and the GI50 (HCT-15) was over 100 µM. The GI50 (IGROV-1) was > 100 µM (inactive), the GI50 (M14) was > 100 µM (inactive) and the GI50 (HCC 2998) was > 100 µM (inactive). For the same compound, the GI50 (COLO 205) was > 100 µM (inactive), the GI50 (UO-31) was > 100 µM (inactive) and the GI50 (UACC-62) was 93.1 µM (inactive). The GI50 (HOP-92) was 53.3 µM (inactive), the GI50 (SNB-75) was > 100 µM (inactive) and the GI50 (NCI-H23) was > 100 µM (inactive). For the same compound, the GI50 (SF-295) was > 100 µM (inactive), the GI50 (HT-29) was > 100 µM (inactive) and the GI50 (SK-MEL-5) was > 100 µM (inactive). For the same compound, the GI50 (SK-MEL-28) was > 100 µM (inactive), the GI50 (SN12C) was > 100 µM (inactive) and the GI50 (LXFL 529) was > 100 µM (inactive). For the same compound, the GI50 (DLD-1) was > 100 µM (inactive) and the GI50 (SR) was > 100 µM (inactive).

For `Cc1cc(N(CCC#N)CCC#N)ccc1/C=C1/CN(N2C(=O)/C(=C/c3ccc(N(CCC#N)CCC#N)cc3C)N=C2c2ccccc2)C(c2ccccc2)=N1`, the GI50 (DMS-273) was > 100 µM (inactive), the GI50 (CAKI-1) was > 100 µM (inactive) and the GI50 (HOP-18) was > 100 µM (inactive). The GI50 (KM12) was > 100 µM (inactive), the GI50 (SF-268) was > 100 µM (inactive) and the GI50 (ACHN) was > 100 µM (inactive). For the same compound, the GI50 (Malme-3M) was > 100 µM (inactive), the GI50 (OVCAR-8) was > 100 µM (inactive) and the GI50 (XF498) was 36 µM (inactive). The GI50 (DMS-114) was > 100 µM (inactive), the GI50 (SNB-78) was 32.1 µM (inactive) and the GI50 (KM-20L2) was > 100 µM (inactive). For the same compound, the GI50 (HOP-62) was 34.6 µM (inactive), the GI50 (A498) was > 100 µM (inactive) and the GI50 (NCI-H226) was > 100 µM (inactive). The GI50 (NCI-H460) was > 100 µM (inactive), the GI50 (OVCAR-5) was > 100 µM (inactive) and the GI50 (OVCAR-3) was > 100 µM (inactive). For the same compound, the GI50 (UACC-257) was > 100 µM (inactive), the GI50 (SW-620) was > 100 µM (inactive) and the GI50 (U-251) was 32 µM (inactive). The GI50 (OVCAR-4) was > 100 µM (inactive), the GI50 (HL-60) was > 100 µM (inactive) and the GI50 (NCI-H522) was > 100 µM (inactive). The GI50 (LOX IMVI) was > 100 µM (inactive), the GI50 (RXF 393) was 28.4 µM (inactive) and the GI50 (786-0) was 54.3 µM (inactive). For the same compound, the GI50 (K562) was > 100 µM (inactive), the GI50 (A549) was > 100 µM (inactive) and the GI50 (CCRF-CEM) was > 100 µM (inactive). For the same compound, the GI50 (SF-539) was 99.5 µM (inactive), the GI50 (M19-MEL) was > 100 µM (inactive) and the GI50 (SNB-19) was 41 µM (inactive). For the same compound, the GI50 (EKVX) was > 100 µM (inactive), the GI50 (TK-10) was 26.5 µM (inactive) and the GI50 (MOLT-4) was > 100 µM (inactive). For the same compound, the GI50 (HCT-116) was > 100 µM (inactive), the GI50 (HCT-15) was over 100 µM and the GI50 (IGROV-1) was > 100 µM (inactive). For the same compound, the GI50 (M14) was 90.4 µM (inactive), the GI50 (HCC 2998) was > 100 µM (inactive) and the GI50 (COLO 205) was > 100 µM (inactive). For the same compound, the GI50 (UO-31) was > 100 µM (inactive), the GI50 (UACC-62) was > 100 µM (inactive) and the GI50 (HOP-92) was 44.6 µM (inactive). The GI50 (SNB-75) was 16.9 µM (inactive), the GI50 (NCI-H23) was 42.8 µM (inactive) and the GI50 (SF-295) was 48.8 µM (inactive). The GI50 (HT-29) was > 100 µM (inactive), the GI50 (SK-MEL-5) was > 100 µM (inactive) and the GI50 (SK-MEL-28) was > 100 µM (inactive). The GI50 (SN12C) was > 100 µM (inactive), the GI50 (LXFL 529) was 63.5 µM (inactive) and the GI50 (DLD-1) was > 100 µM (inactive). For the same compound, the GI50 (SR) was > 100 µM (inactive).
